From patent US9957271B2, “Substituted bicyclic aza-heterocycles and analogues as sirtuin modulators” (GlaxoSmithKline, LLC, priority 2012, dated 2018) come the findings set out here.

The target in the experiment is T1, SIRT1 (Homo sapiens, UniProt Q96EB6).
T1 sequence (Q96EB6 1-747): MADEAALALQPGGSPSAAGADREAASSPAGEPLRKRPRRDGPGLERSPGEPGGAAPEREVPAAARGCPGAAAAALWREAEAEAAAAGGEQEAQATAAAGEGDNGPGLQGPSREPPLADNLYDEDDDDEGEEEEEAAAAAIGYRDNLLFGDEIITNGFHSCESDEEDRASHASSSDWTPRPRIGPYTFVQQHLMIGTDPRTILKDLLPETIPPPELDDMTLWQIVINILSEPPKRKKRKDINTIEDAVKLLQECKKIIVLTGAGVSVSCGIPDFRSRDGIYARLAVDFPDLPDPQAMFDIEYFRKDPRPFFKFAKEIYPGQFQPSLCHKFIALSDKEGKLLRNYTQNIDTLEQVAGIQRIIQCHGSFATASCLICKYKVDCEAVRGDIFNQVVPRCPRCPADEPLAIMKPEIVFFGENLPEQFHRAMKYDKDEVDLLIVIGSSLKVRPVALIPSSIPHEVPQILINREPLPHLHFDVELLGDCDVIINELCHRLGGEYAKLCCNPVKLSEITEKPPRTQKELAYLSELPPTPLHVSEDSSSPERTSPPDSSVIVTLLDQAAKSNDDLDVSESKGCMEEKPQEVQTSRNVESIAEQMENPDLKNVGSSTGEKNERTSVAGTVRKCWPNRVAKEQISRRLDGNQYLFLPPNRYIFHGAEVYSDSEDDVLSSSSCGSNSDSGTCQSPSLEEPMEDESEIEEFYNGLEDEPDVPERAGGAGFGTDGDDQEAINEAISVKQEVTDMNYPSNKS
The experiment in a line: TAMRA based mass spectrometry assay of SIRT1 activity. Particulars: TAMRA assay; for TAMRA EC1.5 (μM): concentration giving 150% activation of SIRT1; for Emax: percent maximum fold activation, read-out: TAMRA % Fold Act. In kind it is biochemical. A digest of the protocol: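 Deacetylation of a biotinylated, TAMRA-tagged p53-based peptide (0.5 μM) by 10 nM His-tagged SIRT1 with 120 μM βNAD+, 25 °C for 25 min, pH 8 Tris-acetate buffer, across a compound concentration range. Quenched by formic acid and read by mass spec as product peptide or OAADPR; activity relative to DMSO reactions, nicotinamide defining maximal inhibition.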

`Cc1cc(C)nc(NC(=O)c2cnc3ccc(-c4ccccc4C(F)(F)F)nn23)n1` [Compound 247]: the “TAMRA EC1.5 (μM)” value was “A (EC1.5<1 μM)” and the Emax was ≥ 350%.
Taken in the same sequence, the figures for `O=C(Nc1cnn2ccc(-c3ccccc3C(F)(F)F)nc12)c1cccnc1` [Compound 250] were “C (EC1.5>25 μM)” and < 350%.
Taken in the same sequence, the figures for `O=C(Nc1cnn2ccc(-c3ccccc3C(F)(F)F)nc12)c1ncccn1` [Compound 252] were “B (EC1.5 1-25 μM)” and ≥ 350%.
On the same counts, the results for `O=C(Nc1cnn2ccc(-c3ccccc3C(F)(F)F)nc12)c1cnccn1` [Compound 253] are “B (EC1.5 1-25 μM)” and ≥ 350%.
With `O=C(Nc1cnn2ccc(-c3ccccc3C(F)(F)F)nc12)c1cccc(N2CCOCC2)n1` [Compound 256], the “TAMRA EC1.5 (μM)” value is “A (EC1.5<1 μM)” and the Emax was ≥ 350%.
With `O=C(Nc1cccc(OCC(F)(F)F)n1)c1cnc2ccc(-c3ccccc3F)nn12` [Compound 258], the “TAMRA EC1.5 (μM)” value is listed as “C (EC1.5>25 μM)” and the Emax is < 350%.
Take `Cc1cc(NC(=O)c2cnc3ccc(-c4ccccc4Cl)nn23)ccn1` [Compound 259]: the “TAMRA EC1.5 (μM)” value is “B (EC1.5 1-25 μM)” and the Emax is ≥ 350%.
As for `O=C(Nc1cccc(OCC(F)(F)F)n1)c1cnc2ccc(-c3ccccc3Cl)nn12` [Compound 262], the “TAMRA EC1.5 (μM)” value is “C (EC1.5>25 μM)” and the Emax was < 350%.
On the same counts, the results for `O=C(Nc1cccc(OCC(F)(F)F)n1)c1cnc2ccc(-c3ccccc3C(F)(F)F)nn12` [Compound 264] are “B (EC1.5 1-25 μM)” and ≥ 350%.
For `O=C(Nc1ccccn1)c1cnn2ccc(-c3ccccc3C(F)(F)F)nc12` [Compound 265, N-(pyridin-2-yl)-5-(2-(trifluoromethyl)phenyl)pyrazolo[1,5-a]pyrimidine-3-carboxamide], the “TAMRA EC1.5 (μM)” value is “A (EC1.5<1 μM)” and the Emax is ≥ 350%.
Taken in the same sequence, the figures for `O=C(Nc1ccncn1)c1cnn2ccc(-c3ccccc3C(F)(F)F)nc12` [Compound 268] were “A (EC1.5<1 μM)” and ≥ 350%.
For the molecule `Cc1ccnc(NC(=O)c2cnc3ccc(-c4ccccc4C(F)(F)F)nn23)n1` [Compound 270], the “TAMRA EC1.5 (μM)” value is “A (EC1.5<1 μM)” and the Emax is ≥ 350%.
Taken in the same sequence, the figures for `Cc1scnc1C(=O)Nc1cnc2ccc(-c3ccccc3C(F)(F)F)nn12` [Compound 271] were “A (EC1.5<1 μM)” and ≥ 350%.
Regarding `CC(C)c1nccc(C(=O)Nc2cnc3ccc(-c4ccccc4C(F)(F)F)nn23)n1` [Compound 274], the “TAMRA EC1.5 (μM)” value is “A (EC1.5<1 μM)” and the Emax was ≥ 350%.
As to `Cc1ccc(NC(=O)c2cnc3ccc(-c4ccccc4C(F)(F)F)nn23)nn1` [Compound 276], the “TAMRA EC1.5 (μM)” value was “A (EC1.5<1 μM)” and the Emax is ≥ 350%.
`Cc1cc(OCC2(C)COC2)nc(NC(=O)c2cnc3ccc(-c4ccccc4C(F)(F)F)nn23)n1` [Compound 277]: the “TAMRA EC1.5 (μM)” value is listed as “A (EC1.5<1 μM)” and the Emax was ≥ 350%.
As to `CC(CO)(CO)Oc1nccc(NC(=O)c2cnc3ccc(-c4ccccc4C(F)(F)F)nn23)n1` [Compound 278], the “TAMRA EC1.5 (μM)” value was “B (EC1.5 1-25 μM)” and the Emax is < 350%.
Taken in the same sequence, the figures for `O=C(Nc1cnc2ccc(-c3ccccc3F)nn12)c1cnccn1` [Compound 280] were “B (EC1.5 1-25 μM)” and < 350%.
Taken in the same sequence, the figures for `O=C(Nc1cnc2ccc(-c3ccccc3F)nn12)c1ncccn1` [Compound 282] were “B (EC1.5 1-25 μM)” and < 350%.
On the same counts, the results for `O=C(Nc1ccnc(OCC(O)CO)c1)c1cnc2ccc(-c3ccccc3Cl)nn12` (stereo not shown) [Compound 283] are “A (EC1.5<1 μM)” and < 350%.
